Data from US6737383B1, “Herbicidal oxadiazolidines” (priority 1999, dated 2004).

How the values were obtained:
wild oat = assay: Test B pre/postemergence wild oat; type: in vivo, Avena fatua
How it was run: (§1)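 Herbicidal effect was estimated by eye on a ten-point control scale after plants spent twelve to sixteen days in a greenhouse following soil or foliar treatment. Foliar sprays targeted plants at one to four leaves; all doses were formulated in a non-phytotoxic solvent with surfactant.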

purple nutsedge = assay: Test B pre/postemergence purple nutsedge; type: in vivo, Cyperus rotundus
How it was run: as §1

soybean = assay: Test B pre/postemergence soybean; type: in vivo, Glycine max
How it was run: as §1

crabgrass = assay: Test B pre/postemergence crabgrass; type: in vivo, Digitaria sanguinalis
How it was run: as §1

giant foxtail = assay: Test B pre/postemergence giant foxtail; type: in vivo, Setaria faberii
How it was run: as §1

pigweed = assay: Test B pre/postemergence pigweed; type: in vivo, Amaranthus retroflexus
How it was run: as §1

duck salad = assay: Test B flood test duck salad; type: in vivo, Heteranthera limosa
How it was run: (§2)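 Plants were grown to the 2-leaf stage before treatment with test chemical, then held in a greenhouse for twelve to sixteen days. Injury was visually rated against untreated controls on a 0–10 scale, where 0 is no effect and 10 is complete control.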

surinam grass = assay: Test B pre/postemergence surinam grass; type: in vivo, Brachiaria decumbens
How it was run: as §1

rice = assay: Test B flood test rice; type: in vivo, Oryza sativa
How it was run: as §2

sugar beet = assay: Test B pre/postemergence sugar beet; type: in vivo, Beta vulgaris
How it was run: as §1

corn = assay: Test B pre/postemergence corn; type: in vivo, Zea mays
How it was run: as §1

bedstraw = assay: Test B pre/postemergence bedstraw; type: in vivo, Galium aparine; conditions: Postemergence, 10 is complete control
How it was run: as §1

wheat = assay: Test B pre/postemergence wheat; type: in vivo, Triticum aestivum
How it was run: as §1

velvetleaf = assay: Test B pre/postemergence velvetleaf; type: in vivo, Abutilon theophrasti
How it was run: as §1

cocklebur = assay: Test B pre/postemergence cocklebur; type: in vivo, Xanthium strumarium
How it was run: as §1

blackgrass = assay: Test B pre/postemergence blackgrass; type: in vivo, Alopecurus myosuroides
How it was run: as §1

[1] = Postemergence, Rate 62 g/ha, scale 0 to 10, 0 is no effect, 10 is complete control
[2] = Postemergence, Rate 125 g/ha, scale of 0 to 10 where 0 is no effect and 10 is complete control
[3] = Preemergence, Rate 62 g/ha, scale of 0 to 10 where 0 is no effect and 10 is complete control
[4] = Preemergence, Rate 125 g/ha, scale of 0 to 10 where 0 is no effect and 10 is complete control
[5] = Preemergence, Rate 250 g/ha, scale 0 to 10 (0 no effect, 10 complete control)
[6] = Preemergence, Rate 500 g/ha, scale of 0 to 10 where 0 is no effect and 10 is complete control
[7] = Postemergence, Rate 250 g/ha, scale of 0 to 10, 0 is no effect, 10 is complete control
[8] = Postemergence, Rate 500 g/ha, scale of 0 to 10 where 0 is no effect and 10 is complete control
[9] = Rate 62 g/ha, flood test species, Pre-emergence, visual evaluation after twelve to sixteen days
[10] = Rate 125 g/ha, under heading Pre-emergence, flood test species, visual evaluation after twelve to sixteen days
[11] = Rate 250 g/ha, Pre-emergence (flood test species), scale 0 to 10, 0 is no effect, 10 is complete control
[12] = Rate 500 g/ha, Pre-emergence section of Table B, 0 to 10 scale (0 no effect, 10 complete control)

SMILES: CC(C)N(C(=O)n1oc(=O)n(Cc2nnc(Cl)s2)c1=O)c1ccc(F)cc1F [Compound 645]
- Plant response rating, Wild oats (wild oat; [1]): 0
- Wild oats plant response rating (wild oat; [2]): 0
- Wild oats plant response rating (wild oat; [3]): 0
- Wild oats plant response rating (wild oat; [4]): 0
- Plant response rating, Wild oats (wild oat; [5]): 0
- Plant response rating, Wild oats (wild oat; [6]): 0
- Plant response rating, Nutsedge (purple nutsedge; [1]): 0
- Nutsedge plant response rating (purple nutsedge; [2]): 0
- Nutsedge plant response rating (purple nutsedge; [3]): 0
- Nutsedge plant response rating (purple nutsedge; [4]): 0
- Plant response rating, Nutsedge (purple nutsedge; [5]): 0
- Plant response rating, Nutsedge (purple nutsedge; [6]): 0
- Plant response rating, Soybean (soybean; [1]): 1
- Soybean plant response rating (soybean; [2]): 1
- Soybean plant response rating (soybean; [3]): 0
- Soybean plant response rating (soybean; [4]): 0
- Plant response rating, Soybean (soybean; [5]): 0
- Plant response rating, Soybean (soybean; [6]): 0
- Plant response rating, Crabgrass (crabgrass; [1]): 0
- Crabgrass plant response rating (crabgrass; [2]): 0
- Crabgrass plant response rating (crabgrass; [7]): 0
- Plant response rating, Crabgrass (crabgrass; [8]): 3
- Crabgrass plant response rating (crabgrass; [3]): 2
- Crabgrass plant response rating (crabgrass; [4]): 3
- Plant response rating, Crabgrass (crabgrass; [5]): 4
- Plant response rating, Crabgrass (crabgrass; [6]): 5
- Plant response rating, Giant foxtail (giant foxtail; [1]): 0
- Giant foxtail plant response rating (giant foxtail; [2]): 0
- Giant foxtail plant response rating (giant foxtail; [7]): 0
- Plant response rating, Giant foxtail (giant foxtail; [8]): 2
- Giant foxtail plant response rating (giant foxtail; [3]): 1
- Giant foxtail plant response rating (giant foxtail; [4]): 2
- Plant response rating, Giant foxtail (giant foxtail; [5]): 5
- Plant response rating, Giant foxtail (giant foxtail; [6]): 7
- Plant response rating, Redroot pigweed (pigweed; [1]): 0
- Redroot pigweed plant response rating (pigweed; [2]): 2
- Redroot pigweed plant response rating (pigweed; [3]): 0
- Redroot pigweed plant response rating (pigweed; [4]): 0
- Plant response rating, Redroot pigweed (pigweed; [5]): 0
- Plant response rating, Redroot pigweed (pigweed; [6]): 4
- Plant response rating, Ducksalad (0 to 10 scale, 0 is no effect, 10 is complete control) (duck salad; [9]): 0
- Ducksalad plant response rating (0 to 10 scale, 0 is no effect, 10 is complete control) (duck salad; [10]): 0
- Ducksalad plant response rating (duck salad; [11]): 0
- Ducksalad plant response rating (duck salad; [12]): 0
- Plant response rating, B. signalgrass (surinam grass; [1]): 0
- Plant response rating, B. signalgrass (surinam grass; [2]): 0
- B. signalgrass plant response rating (surinam grass; [7]): 0
- Plant response rating, B. signalgrass (surinam grass; [8]): 0
- B. signalgrass plant response rating (surinam grass; [3]): 0
- B. signalgrass plant response rating (surinam grass; [4]): 0
- Plant response rating, B. signalgrass (surinam grass; [5]): 0
- Plant response rating, B. signalgrass (surinam grass; [6]): 0
- Plant response rating, Rice (0 to 10 scale, 0 is no effect, 10 is complete control) (rice; [9]): 0
- Rice plant response rating (0 to 10 scale, 0 is no effect, 10 is complete control) (rice; [10]): 0
- Rice plant response rating (rice; [11]): 0
- Rice plant response rating (rice; [12]): 0
- Plant response rating, Sugarbeets (sugar beet; [1]): 0
- Sugarbeets plant response rating (sugar beet; [2]): 0
- Sugarbeets plant response rating (sugar beet; [3]): 0
- Sugarbeets plant response rating (sugar beet; [4]): 0
- Plant response rating, Sugarbeets (sugar beet; [5]): 0
- Plant response rating, Sugarbeets (sugar beet; [6]): 0
- Plant response rating, Corn (corn; [1]): 0
- Corn plant response rating (corn; [2]): 0
- Corn plant response rating (corn; [7]): 0
- Plant response rating, Corn (corn; [8]): 0
- Corn plant response rating (corn; [3]): 0
- Corn plant response rating (corn; [4]): 0
- Plant response rating, Corn (corn; [5]): 0
- Plant response rating, Corn (corn; [6]): 0
- Plant response rating, Bedstraw (bedstraw; Rate 62 g/ha, scale 0 to 10, 0 is no effect): 0
- Bedstraw plant response rating (bedstraw; Rate 250 g/ha, scale of 0 to 10, 0 is no effect): 0
- Plant response rating, Wheat (wheat; [1]): 0
- Wheat plant response rating (wheat; [2]): 0
- Wheat plant response rating (wheat; [3]): 0
- Wheat plant response rating (wheat; [4]): 0
- Plant response rating, Wheat (wheat; [5]): 0
- Plant response rating, Wheat (wheat; [6]): 0
- Plant response rating, Velvetleaf (velvetleaf; [1]): 0
- Velvetleaf plant response rating (velvetleaf; [2]): 0
- Velvetleaf plant response rating (velvetleaf; [3]): 0
- Velvetleaf plant response rating (velvetleaf; [4]): 0
- Plant response rating, Velvetleaf (velvetleaf; [5]): 0
- Plant response rating, Velvetleaf (velvetleaf; [6]): 0
- Plant response rating, Cocklebur (cocklebur; [1]): 0
- Cocklebur plant response rating (cocklebur; [2]): 0
- Cocklebur plant response rating (cocklebur; [7]): 3
- Plant response rating, Cocklebur (cocklebur; [8]): 7
- Cocklebur plant response rating (cocklebur; [3]): 0
- Cocklebur plant response rating (cocklebur; [4]): 0
- Plant response rating, Cocklebur (cocklebur; [5]): 0
- Plant response rating, Cocklebur (cocklebur; [6]): 0
- Plant response rating, Blackgrass (blackgrass; [1]): 0
- Blackgrass plant response rating (blackgrass; [2]): 0
- Blackgrass plant response rating (blackgrass; [7]): 0
- Plant response rating, Blackgrass (blackgrass; [8]): 0
- Blackgrass plant response rating (blackgrass; [3]): 0
- Blackgrass plant response rating (blackgrass; [4]): 0
- Plant response rating, Blackgrass (blackgrass; [5]): 0
- Plant response rating, Blackgrass (blackgrass; [6]): 0
